Broadly, the Km is the concentration of substrate that gives half-maximal velocity.

These results are taken from ChEMBL document CHEMBL1130544, “Catalysis of the Kemp elimination by antibodies elicited against a cationic hapten” (Bioorg Med Chem Lett, 1997).

Common to all, as to format: ADME
Data set [1] is described as follows: Kinetic parameter for antibody-catalyzed Kemp elimination, at pH 7.1, 30C, using 1% acetonitrile and 4B2 as catalyst was expressed as KM.
A short description of data set [2]: Kinetic parameter for antibody-catalyzed Kemp elimination, at pH 7.1, 30C, using 1% acetonitrile and 6C2 as catalyst was expressed as Kcat/KM.
Data set [3] is described as follows: Kinetic parameter for antibody-catalyzed Kemp elimination, at pH 7.1, 30C, using 1% acetonitrile and 4B2 as catalyst was expressed as Kcat/KM.
A short description of data set [4]: Rate constant with triethylamine at 30 degree C in 0.1 M potassium chloride was expressed as Kamine.
Data set [5] in a line: Kinetic parameter for antibody-catalyzed Kemp elimination, at pH 7.1, 30C, using 1% acetonitrile and 4B2 as catalyst was expressed as Kcat/Kuncat.
Data set [6] can be described thus: Rate constant ratio at 30 degree C in phosphate buffer pH 7.1, 0.5 % acetonitrile.
Data set [7] can be described thus: Kinetic parameter for antibody-catalyzed Kemp elimination, at pH 7.1, 30C, using 5% acetonitrile and 4B2 as catalyst was expressed as Kcat.
Data set [8] can be described thus: Rate constant at 30 degree C in phosphate buffer pH 7.1, 0.5 % acetonitrile was expressed as Kcat/KM.
Data set [9] is described as follows: Kinetic parameter for antibody-catalyzed Kemp elimination, at pH 7.1, 30C, using 5% acetonitrile and 4B2 as catalyst was expressed as Kcat/Kuncat.
The nature of data set [10]: Kinetic parameter for antibody-catalyzed Kemp elimination, at pH 7.1, 30C, using 10% acetonitrile and 4B2 as catalyst was expressed as Kcat/KM.
The nature of data set [11]: Kinetic parameter for antibody-catalyzed Kemp elimination, at pH 7.1, 30C, using 5% acetonitrile and 4B2 as catalyst was expressed as KM.
Data set [12] in a line: Kinetic parameter for antibody-catalyzed Kemp elimination, at pH 7.1, 30C, using 0.25% acetonitrile and 4B2 as catalyst was expressed as Kcat/KM.
The nature of data set [13]: Kinetic parameter for antibody-catalyzed Kemp elimination, at pH 7.1, 30C, using 1% acetonitrile and 4B2 as catalyst was expressed as Kcat.
Data set [14] in a line: Kinetic parameter for antibody-catalyzed Kemp elimination, at pH 7.1, 30C, using 5% acetonitrile and 4B2 as catalyst was expressed as Kcat/KM.

Turning to `O=[N+]([O-])c1ccc2oncc2c1`, the Michaelis constant (Km) turned out to be 1200 µM in data set [1] and 2100 µM in [11]. In addition, the “k cat/Km” value in [2] was 1.4 M⁻¹ s⁻¹; in [3], 29.1 M⁻¹ s⁻¹; in [8], 39 M⁻¹ s⁻¹; in [10], 5.9 M⁻¹ s⁻¹; in [12], 53 M⁻¹ s⁻¹; in data set [14] it was 10.1 M⁻¹ s⁻¹. In addition, in data set [4], the K amine is 0.82 M⁻¹ s⁻¹. Also, the k cat/Kuncat in data set [5] was found to be 18000; in data set [9] it was 6300. In data set [6], the Ratio is 48. The k cat in [7] is 0.022 s⁻¹; in [13] it was 0.035 s⁻¹.

With `O=[N+]([O-])c1ccc2cnoc2c1`, the K amine in [4] is 0.16 M⁻¹ s⁻¹. In addition, the Ratio in data set [6] turned out to be 38. In [8], the “k cat/Km” value was 6 M⁻¹ s⁻¹.

Consider `c1ccc2oncc2c1` [BENZO[D]ISOXAZOLE], for which, in data set [4], the K amine came out at 0.0185 M⁻¹ s⁻¹. In addition, in data set [6], the Ratio is 32. Also, the “k cat/Km” value in [8] was 0.6 M⁻¹ s⁻¹.
